{"source": "patent US20240299492A1", "about": "“COMBINATION THERAPIES WITH SIRP ALPHA-BASED CHIMERIC PROTEINS” (Shattuck Labs, Inc., priority 2021, published 2024)", "key": {"calreticulin (CRT) [1]": {"system": "calreticulin (CRT)", "assay": "Surface expression of calreticulin in Kasumi-1 cells (flow cytometry)", "type": "cell-based, human", "conditions": "15 μM or 50 μM APR-246, overnight; FIG. 12B", "protocol": "(§1) Briefly, the Kasumi-1 human acute myelocytic leukemia (AML) cells were incubated overnight in the presence of vehicle only control, 15 μM APR-246, or 50 μM APR-246. The following day, the Kasumi-1 cells were analyzed by flow cytometry for surface expression of p53 and calreticulin (CRT)."}, "p53": {"system": "p53", "assay": "Surface expression of p53 in Kasumi-1 cells (flow cytometry)", "type": "cell-based, human", "conditions": "15 μM or 50 μM APR-246, overnight; FIG. 12A", "protocol": "as §1"}, "Kasumi-3 AML cells": {"system": "Kasumi-3 AML cells", "assay": "Phagocytosis of Kasumi-3 AML cells by human macrophages (flow cytometry): azacitidine and/or venetoclax and/or SIRPα-Fc-CD40L", "type": "cell-based", "conditions": "50 μg/ml SIRPα-Fc-CD40L (p<0.05), 10 μM azacitidine (p<0.0001), 1 μM venetoclax (p<0.05); each combination p<0.0001; 4 hours; FIG. 14C", "protocol": "Briefly, the Kasumi-3 AML cells were labeled with a green fluorescent tracker and co-cultured with human macrophages and treated with (1) vehicle alone control, (2) 50 μg/ml of the SIRPα-Fc-CD40L chimeric protein, (3) 10 μM azacitidine, (4) 50 μg/ml of the SIRPα-Fc-CD40L chimeric protein+10 μM azacitidine, (5) 1 μM venetoclax, (6) 50 μg/ml of the SIRPα-Fc-CD40L chimeric protein+1 μM venetoclax, or (7) 50 μg/ml of the SIRPα-Fc-CD40L chimeric protein+1 μM venetoclax+10 μM azacitidine. The cells were incubated at 37° C. in the presence of 5% CO2 for 4 hours. After this incubation, the cells were harvested and treated with an anti-CD11b antibody (a macrophage marker) and were analyzed using flow cytometry. Positive phagocytosis was determined by the overlap in signals of tumor (the green fluorescent tracker) and macrophage (anti-CD11b antibody staining). A phagocytosis index was calculated by setting the maximum phagocytosis value to 1, and then normalizing all other replicates accordingly. The phagocytosis index was plotted for the indicated treatments."}, "[2]": {"system": "Kasumi-3 human acute myelocytic leukemia (AML) cells", "assay": "Phagocytosis of Kasumi-3 cells by human macrophages (flow cytometry): azacitidine and/or SIRPα-Fc-CD40L", "type": "cell-based", "conditions": "0.1 pM azacitidine overnight and/or SIRPα-Fc-CD40L for 4 hours; combination p<0.0001 vs control; FIG. 2B", "protocol": "(§2) In another experiment, the Kasumi-3 human acute myelocytic leukemia (AML) cells were labeled with a green fluorescent tracker and treated with vehicle alone control or 0.1 pM azacitidine overnight. The following day, the tumor cells were washed in PBS and then co-cultured with human macrophages with or without the SIRPα-Fc-CD40L chimeric protein for 4 hours at 37° C. in the presence of 5% CO2. After this incubation, the cells were harvested and treated with an anti-CD11b antibody (a macrophage marker) and were analyzed using flow cytometry. Positive phagocytosis was determined by the overlap in signals of tumor (the green fluorescent tracker) and macrophage (anti-CD11b antibody staining). A phagocytosis index was calculated by setting the maximum phagocytosis value to 1, and then normalizing all other replicates accordingly. The phagocytosis index was plotted for the indicated treatments."}, "A20 lymphoma cells": {"system": "A20 lymphoma cells", "assay": "In vivo anti-tumor efficacy, A20 lymphoma cell allograft mouse model", "parameters": "species or system BALB/C mice", "conditions": "day 12; 1 mg/kg azacitidine (days 0-4), 4 mg/kg pevonedistat (MLN4924) (days 0-3), 200 μg SIRPα-Fc-CD40L (mSIRPα-Fc-CD40L; days 0, 3, 6), intraperitoneal; FIG. 13C", "protocol": "The efficacy of the SIRPα-Fc-CD40L chimeric protein was evaluated in combination with an immune checkpoint inhibitor. Towards that, the ability of an anti-PD-L1 antibody and chimeric proteins to target and reduce tumor volume in vivo was determined. Briefly, BALB/C mice were inoculated with 1×10^6 A20 lymphoma cells. When tumor volumes were approximately 75 to 80 mm^3 (day 0), the mice were randomly distributed in the following treatment groups: (1) vehicle only control, (2) 200 μg of the mouse SIRPα-Fc-CD40L chimeric protein alone, (3) 100 μg an anti-PD-L1 antibody (clone 10F.9G2), and (4) a combination 200 μg of the SIRPα-Fc-CD40L chimeric protein and 100 μg the anti-PD-L1 antibody. […] Tumors were measured with electronic calipers on day 12 and plotted using the GraphPad Prism software. […]\nThe efficacy of the SIRPα-Fc-CD40L chimeric protein was evaluated in combination with an antimetabolite/DNA synthesis inhibitor. Towards that, the ability of cytarabine and the chimeric protein to target and reduce tumor volume in vivo was determined. […] Tumors were measured with electronic calipers on day 12 and plotted using the GraphPad Prism software. […]\nThe efficacy of the SIRPα-Fc-CD40L chimeric protein was evaluated in combination with a hypomethylating agent/an epigenetic regulator and/or a protein neddylation inhibitor. […]"}, "calreticulin (CRT) [3]": {"system": "calreticulin (CRT)", "assay": "Surface expression of calreticulin in K652 cells (flow cytometry)", "type": "cell-based, human", "conditions": "1 μM, overnight; FIG. 11C", "protocol": "(§3) Briefly, the K652 human chronic myelogenous leukemia cells were incubated overnight in the presence of vehicle only control, 1 μM azacitidine or 1 μM pevonedistat. The following day, the K652 cells were analyzed by flow cytometry for surface expression of CD47 or calreticulin (CRT)."}, "[4]": {"system": "K652 human chronic myelogenous leukemia (CML) cells", "assay": "Phagocytosis of K652 cells by human macrophages (flow cytometry): azacitidine and/or SIRPα-Fc-CD40L", "type": "cell-based", "conditions": "0.1 μM azacitidine overnight and/or SIRPα-Fc-CD40L for 4 hours; combination p<0.001 vs control; FIG. 2A", "protocol": "as §2, with “Briefly,” for “In another experiment,”, “K652” for “Kasumi-3”, “chronic myelogenous” for “acute myelocytic”, “(CML)” for “(AML)”, “μM” for “pM”"}, "calreticulin (CRT) [5]": {"system": "calreticulin (CRT)", "assay": "Surface expression of calreticulin in Kasumi-3 cells (flow cytometry), Example 19", "type": "cell-based, human", "conditions": "increasing amounts, overnight; FIG. 14B", "protocol": "(§4) The surface expression of apoptosis marker […] or the […] protein calreticulin (CRT) was studied. Briefly, the Kasumi-3 cells were incubated overnight in the presence of vehicle only control, increasing amounts of azacitidine or venetoclax, or a combination of azacitidine and venetoclax. The following day, the cells were analyzed by flow cytometry for surface expression of annexin or calreticulin (CRT). […] In addition, except for very high concentrations of azacitidine and venetoclax (100 μM each), the apoptosis induced by azacitidine and venetoclax was not additive compared to corresponding single treatments (FIG. 14A). […] In addition, except for very high concentrations of azacitidine and venetoclax (100 μM each), the apoptosis induced by azacitidine and venetoclax was not additive compared to corresponding single treatments (FIG. 14B)."}, "annexin V": {"system": "annexin V", "assay": "Surface expression of annexin V in Kasumi-3 cells (flow cytometry)", "type": "cell-based, human", "conditions": "increasing amounts, overnight; FIG. 14A", "protocol": "as §4"}, "CD47 [6]": {"system": "CD47", "assay": "Surface expression of CD47 in K652 cells (flow cytometry)", "type": "cell-based, human", "conditions": "1 μM, overnight; FIG. 11A", "protocol": "as §3"}, "calreticulin (CRT) [7]": {"system": "calreticulin (CRT)", "assay": "Surface expression of calreticulin in Kasumi-3 cells (flow cytometry), Example 17", "type": "cell-based, human", "conditions": "1 μM, overnight; FIG. 11D", "protocol": "(§5) In another experiment, the Kasumi-3 human acute myelocytic leukemia (AML) cells were incubated overnight in the presence of vehicle only control, 1 μM pevonedistat (MLN4924) or […]. The following day, the Kasumi-3 cells were analyzed by flow cytometry for surface expression of CD47 or calreticulin (CRT)."}, "CD47 [8]": {"system": "CD47", "assay": "Surface expression of CD47 in Kasumi-3 cells (flow cytometry)", "type": "cell-based, human", "conditions": "1 μM, overnight; FIG. 11B", "protocol": "as §5"}}, "note": "Entries after “also recorded” stand apart in the source; their conditions may differ."}
{"smiles": "COCC1(CO)C(=O)C2CCN1CC2", "note": "(stereo not drawn) [APR-246]", "values": [{"measurement": "expression of calreticulin compared to the vehicle only-treated Kasumi-1 cells", "setting": "calreticulin (CRT) [1]", "result": "induced the expression"}, {"measurement": "expression of p53 compared to the vehicle only-treated Kasumi-1 cells", "setting": "p53", "result": "dose-dependent induction"}]}
{"smiles": "Nc1ncn([C@@H]2O[C@H](CO)[C@@H](O)[C@H]2O)c(=O)n1", "note": "[azacitidine]", "values": [{"measurement": "level of phagocytosis (phagocytosis index) compared to the vehicle only-treated Kasumi-3 cells", "setting": "Kasumi-3 AML cells", "result": "increased level of phagocytosis"}, {"measurement": "level of phagocytosis (phagocytosis index) compared to the control Kasumi-3 cells", "setting": "[2]", "result": "slight increase in the level of phagocytosis"}, {"measurement": "tumor size", "setting": "A20 lymphoma cells", "result": "reduction in tumor size"}, {"measurement": "surface expression of calreticulin, a pro-phagocytic marker, compared to the vehicle only-treated K652 cells", "setting": "calreticulin (CRT) [3]", "result": "induced the expression"}, {"measurement": "level of phagocytosis (phagocytosis index) compared to the control K652 cells", "setting": "[4]", "result": "increased level of phagocytosis"}, {"measurement": "expression of calreticulin compared to the vehicle only-treated Kasumi-3 cells", "setting": "calreticulin (CRT) [5]", "result": "induced the expression of calreticulin in Kasumi-3 cells in a dose-dependent manner; also recorded: increased the expression"}, {"measurement": "expression of annexin V (apoptosis marker) compared to the vehicle only-treated Kasumi-3 cells", "setting": "annexin V", "result": "induced the expression of annexin V in Kasumi-3 cells in a dose-dependent manner; also recorded: increased the expression"}, {"measurement": "surface expression of CD47 compared to the vehicle only-treated K652 cells", "setting": "CD47 [6]", "result": "induced the expression"}]}
{"smiles": "NS(=O)(=O)OC[C@@H]1C[C@@H](n2ccc3c(N[C@H]4CCc5ccccc54)ncnc32)C[C@@H]1O", "note": "[pevonedistat (MLN4924), pevonedistat]", "values": [{"measurement": "surface expression of calreticulin, a pro-phagocytic marker, compared to the vehicle only-treated Kasumi-3 cells", "setting": "calreticulin (CRT) [7]", "result": "induced the expression"}, {"measurement": "tumor size", "setting": "A20 lymphoma cells", "result": "reduction in tumor size"}, {"measurement": "surface expression of calreticulin, a pro-phagocytic marker, compared to the vehicle only-treated K652 cells", "setting": "calreticulin (CRT) [3]", "result": "induced the expression"}, {"measurement": "surface expression of CD47 compared to the vehicle only-treated Kasumi-3 cells", "setting": "CD47 [8]", "result": "induced the expression"}, {"measurement": "surface expression of CD47 compared to the vehicle only-treated K652 cells", "setting": "CD47 [6]", "result": "induced the expression"}]}
